# Patent US11534457B2, “Use of dextran sulfate” (priority 2017, dated 2022)
# System: MBP expression in human Schwann cells
# Experiment: Myelin basic protein (MBP) immunostaining
# Assay type: cell-based
# Conditions: 48 h
# Experimental: Neurons were cultured as 40,000 cells per well and Schwann cells 3,000 cells per. Cells were treated after 24 hours. The number of cells per well depended on the growth phenotype, proliferative capacity, etc.
# Schwann cells growth medium was prepared by adding 10% of fetal bovine serum (FBS, PAA) to high-glucose DMEM and pre-warmed to 37° C. Cells were thawed in a 37° C. water bath for no longer than 2 min. Cells were gently transferred to a tube containing 10 ml of medium and centrifuged at 200 RCF for 5 min. Pellet was resuspended in 5 ml of medium and cells were counted with the Cellometer. 3,000 cells per well were seeded in previously coated 96-well plates. Cells were incubated at 37° C. with 5% CO2. Cells were allowed to settle for 24 hours before drug treatment.
# LMW-DS was prepared in the culture media of choice for each cell line and added to the respective wells in the doses 0.01 and 0.1 mg/ml. For cell survival assays cells were analyzed after 24 and 48 hours in eight identical wells/dose/time point. Differentiation and protein expression assay was analyzed after 48 hours, also in octuplicates.
# Cells were fixated in the wells. […]
# The Acumen cytometer allows the direct cytometric analysis of attached cells without prior detachment. […] The protein content of the cells can also be directly measured and expressed as either ‘total protein content’ or ‘mean protein content’.
substance,measurement,setting,value
low molecular weight dextran sulfate [LMW-DS],MBP expression,0.01 and 0.1 mg/ml,significantly increased
same,size of MBP-positive cells vs control,,larger
